These results are taken from article PMC10924921, “Mi-2β promotes immune evasion in melanoma by activating EZH2 methylation” (Nature Communications, 2024).

For test [1], the system named is B16F10 cells. The test can be described thus: CCK-8 cell proliferation. The class given is cell-based, mouse. Conditions: CCK-8, B16F10 cells. As to the method:
To test whether Z36-MP5 affects cell proliferation, cells were seeded into 96-well plates at a density of 1 × 10^3 cells/100 μl per well. CCK-8 was used to detect changes in proliferation ability after 3 days of treatment with Z36-MP5 (25 μM). To test whether Mi-2β expression in T cells or treatment of T cells with Z36-MP5 affects the ability of T cells to kill tumor cells, Mi-2β in Pmel-1 T cells was manipulated or Pmel-1 cells were exposed to Z36-MP5 (25 μM) for 24 hrs. The number of cells was quantified. One thousand Pmel-1 T cells were then co cultured with 1000 tumor cells for 24 hrs, and the number of tumor cells was counted.
Supplementary Figure 8. In vitro assay for Mi-2β inhibitors. a The body weight changes of C57BL/6J mice treated with Z36-MP5 (30 mg/kg/day) for 2 weeks. Data are mean ± SEM (n=5). b H&E staining of tissues in C57BL/6J mice treated with or without Z36 -MP5 (30 mg/kg/day) for 2 weeks. […]
The growth of tumor grafts was measured. n = 5. g Mice bearing B16F10 cell s were treated with MS177 (100 mg/kg, 5 days) and then Z36 -MP5 (30 mg/kg/day) or vehicles, accompanied with anti -PD-1 antibody […]

Test [2] deals with tumor-infiltrating lymphocytes in BRafV600E/Ptennull melanoma. The test can be described thus: Flow cytometry of tumor-infiltrating lymphocytes, genetically engineered model. The class given is in vivo, mouse. Here is the method:
Mi-2β^lox/lox mice were generated and generously provide by Dr. Georgopoulos lab (Massachusetts General Hospital at Harvard Medical School)[31]. Tyr::CreER;BRaf^CA;Pten^lox/lox mice were purchased from Jackson laboratories (Stock No: 013590). All strains of mice were on the background of C57BL/6J background. Gene activation and silencing were induced with intraperitoneal (i.p.) administration of 100 µL/mouse/day tamoxifen (20 mg/mL) for constant 5 days. […] Tumor growth was then monitored each the other day. […] When the following conditions occur, the mouse is regarded as dead and euthanized, including weight loss greater than 15%; significant abdominal distension, especially if it begins to compromise respiratory ability of animal; hunched posture; failure to eat or drink; absence of (or abnormal) feces or urine output; reluctance to move or abnormal gait; Discharges or hemorrhage. Abnormal behavior or vocalizations and tumor size exceeded 1 cm^3. All animal experiments were done according to protocols approved by the ethics committee review board of Boston University and in accordance with the guidelines set forth by the US National Institutes of Health and The ethics committee review board of The 2nd Hospital and School of Medicine, Zhejiang University. […]
In general terms: Flow cytometry measures light scatter and fluorescence of single cells or particles in a stream.

With `Cn1c(=O)[nH]c2ccc(-c3cccc(C(=O)NC4CCn5ccnc5C4)c3)cc21` (stereo not drawn) [Z36-MP5], in test [1], the “proliferation of tumor cells” value is given as “not significantly inhibited”. In test [2], the “CD4+ T-cell and Treg populations” value is reported as “not affected”; the “CD8+ T-cell population” value is reported as “moderately induced”.
